Source: PMC9525345, “Hypoalbuminemia affects the spatio-temporal tissue distribution of ochratoxin A in liver and kidneys: consequences for organ toxicity” (Archives of Toxicology, 2022)
Read-outs that look alike come from different tables or passages of the source.

How the values were obtained:
[1] = Intravital two-photon imaging of OTA transport in the kidneys; format: in vivo, mice; conditions: 5 mg/kg tail vein bolus
Description: (§1) Intravital imaging of OTA transport in the livers and the kidneys of anesthetized wild-type and albumin knockout mice was done using an inverted two-photon microscope (LSM MP7, Zeiss, Germany). Details of the surgical preparation of the mice and exposure of the liver and the kidneys for imaging were previously described (Ghallab et al. [2021a]; Reif et al. [2017]). Tissue morphology was visualized by intravenous administration of the mitochondrial membrane potential marker tetramethylrhodamine ethyl ester (TMRE) (#T669, ThermoFisher Scientific) approximately 10 min before recording (Table 2). To image its transport kinetics in the liver and kidneys, a bolus of OTA (5 mg/kg) was administered via a tail vein catheter (SAI-infusion, IL, USA) within approximately 20 s after the onset of recording; the first few frames recorded prior to the OTA administration served to detect the basal tissue auto-fluorescence (Table 2). The mice were kept under controlled ambient temperature conditions of 36 °C, with exposure to a maintenance isoflurane inhalation anesthesia during the entire recording session.
(§2) During image processing, rigid body registration was performed using StackReg (Thévenaz et al. [1998]) to compensate for tissue movement in the recorded time series. From these stabilized videos, 2D projections were generated using average and standard deviation operators. The pixel classification and autocontext workflows of the interactive image segmentation software ilastik (version 1.3.3post1) (Berg et al. [2019]) were used for compartment segmentation in the 2D projections of liver and kidney. The compartments considered are sinusoids, hepatocyte cytoplasm and bile canaliculi in the liver, as well as inter-tubular capillaries, renal tubular lumen, and the tubular epithelial cells in the kidney. Mean raw OTA intensities were measured per compartment and frame. In addition, for the kidney, mean OTA intensities per tubule were measured based on the signal in the TMRE positive cell compartment, and tubules were subsequently grouped into two sets using k-means clustering based on their maximum mean OTA intensity over time.
(§3) For the calculation of the elimination half-life, Microsoft excel was used. First, the decadic logarithm of the intensity was plotted against the time. Then, the linear declining portion of the curve was selected manually and used for construction of a trend line. Next, the slope of the trendline was multiplied by 2.303 to convert the decadic to the natural logarithm and enable usage of the following formulas: • kel = -slope (Certara knowledgebase) • T ½ = ln (2) /kel (Certara knowledgebase)

mice [2] = system: mice; parameters: method as in IARC [1993]; conditions: ref IARC [1993], cited from earlier work
[3] = system: wild-type and albumin knockout mice; experiment: Ochratoxin A toxicity experiment: kidney (histopathology, creatinine, BUN, CD45); format: in vivo; conditions: 24 h
Description: (§4) To study the role of albumin in OTA toxicity, 8-week-old female homozygote and heterozygote albumin-deficient mice, and corresponding C57BL/6 J wild-type controls were challenged intravenously with 10 mg/kg OTA (#10470691, Fisher Scientific) dissolved in 0.1 M NaHCO3, pH 7.4, with an application volume of 2 ml/kg. On day 1 after OTA injection, heart blood samples were collected, and plasma was separated according to a standard protocol (Gianmoena et al. [2021]). In addition, tissue specimens were collected from the left liver lobe and kidneys, fixed for 2 days in 4% paraformaldehyde (#P087-5, Roth), and finally embedded in paraffin for histopathology and immunohistochemistry analyses (Schneider et al. [2021b]).
(§5) Plasma concentration of albumin, creatinine, and blood urea nitrogen (BUN), as well as activities of alanine transaminase (ALT), and aspartate transaminase (AST) were analyzed by the Piccolo Xpress Chemistry Analyzer (Hitado, Germany) using the Piccolo general chemistry 13 panel (#AB-114-400-0029, Hitado, Germany).
(§6) Hematoxylin and eosin (H&E) staining was performed in 4 µm-thick paraffin-embedded liver and kidney tissue sections as previously described (Campos et al. [2020]).
(§7) Visualization of albumin protein expression in the liver tissue, and immune cell infiltration in the liver and kidney tissues was done by immunohistochemistry using an autostainer (Discovery Ultra Automated Slide Preparation System, Roche, Germany) (Ghallab et al. [2021b]). For this purpose, 4 µm-thick paraffin-embedded liver or kidney tissue sections were incubated with primary antibodies against albumin (# ab192603, abcam), CD45 (a pan leukocyte marker; #550,539, BD Bioscience), and FSP1 (a marker of inflammatory subpopulation of macrophages (Österreicher et al. [2011]) (#ab197896, Abcam). Dilutions of the primary antibodies as well as the used secondary antibodies are described in Table 2. Following staining, entire slides were scanned (Axio Scan.Z1, Zeiss, Germany) and representative images are shown in the results section.

[4] = parameters: method as in Anzai et al. [2010]; Ringot et al. [2006]; conditions: ref Anzai et al. [2010]; Ringot et al. [2006]; cited from earlier work
[5] = system: wild-type and albumin knockout mice; experiment: Ochratoxin A toxicity experiment: liver (histopathology, ALT, AST); format: in vivo; conditions: 24 h; for liver histopathology: 10 mg/kg i.v. single dose
Description: as §4, §5, §6, §7

[6] = parameters: method as in EFSA [2020]; conditions: ref EFSA [2020]; cited from earlier work
[7] = Intravital two-photon imaging of OTA transport in the liver; format: in vivo, mice
Description: as §1, §2, §3

mice [8] = system: mice; parameters: method as in Bendele et al. [1985]; Kanisawa and Suzuki [1978]; conditions: mice-fed diets containing 40 ppm, equivalent to 5.6 mg/kg b.w. per day; ref Bendele et al. [1985]; Kanisawa and Suzuki [1978]; cited from earlier work
[9] = parameters: method as in O'Brien and Dietrich [2005]; Ringot et al. [2006]; conditions: human; ref O'Brien and Dietrich [2005]; Ringot et al. [2006]; cited from earlier work
[10] = parameters: method as in Perry et al. [2003]; conditions: weak organic acid; ref Perry et al. [2003]; cited from earlier work
HSA = system: HSA; parameters: method as in Poor et al. [2013]; Sueck et al. [2018]; conditions: ref Poor et al. [2013], Sueck et al. [2018]; cited from earlier work
[11] = parameters: method as in O'Brien and Dietrich [2005]; Ringot et al. [2006]; conditions: mice, per os; ref O'Brien and Dietrich [2005]; Ringot et al. [2006]; cited from earlier work
[12] = heterozygous albumin knockout mice
[13] = homozygous albumin knockout mice

SMILES: C[C@@H]1Cc2c(Cl)cc(C(=O)N[C@@H](Cc3ccccc3)C(=O)O)c(O)c2C(=O)O1 [OTA, Ochratoxin A]
- OTA signal in tubular lumen and tubular epithelial cells [1, 12]: a longer duration and higher intensity of the OTA signal in the tubular epithelial cells
- OTA signal in tubular lumen and tubular epithelial cells [1, 13]: rapid filtration into the renal tubular lumen and enrichment into the tubular epithelial cells
- half-life ([1]; mouse, renal blood capillaries (kidney), intravenous, homozygous albumin knockout mice, read-out: half-life of OTA signal in renal blood capillaries): ~0.28 min
- OTA signal in tubular lumen and tubular epithelial cells ([1]; wild-type mice): only a weak, transient increase was seen in the lumen and cytoplasm of the tubular epithelial cells
- Acute toxicity LD50 (mice [2]; i.v.): 25.7 to 33.8 mg/kg
- Acute toxicity LD50 (mice [2]; p.o.): 46 to 58.3 mg/kg
- blood biomarkers of kidney damage, creatinine and urea nitrogen ([3]; between the three mouse models, 10 mg/kg i.v.): no significant differences
- immune cell infiltration in kidney (CD45) ([3]; wild type and albumin knockout mice, 10 mg/kg i.v.): no obvious immune cell infiltration
- macroscopical or histopathological alterations in kidney tissue ([3]; wild-type, heterozygous and homozygous knockout mice, 10 mg/kg i.v. single dose): did not cause obvious macroscopical or histopathological alterations in the kidney tissue
- plasma protein-binding capacity [4]: > 99%
- liver histopathology [5, 12]: massive pericentral necrosis and hemorrhage
- blood biomarkers of liver injury ALT and AST ([5]; heterozygous albumin-deficient mice compared to wild-type and homozygous, 10 mg/kg i.v.): significantly increased values
- liver histopathology [5, 13]: appeared smaller compared to the heterozygous animals
- liver histopathology ([5]; wild-type mice): small clusters of dead cells in the pericentral compartment of the liver lobule
- Log Pow [6]: 4.37
- transport of OTA to hepatocytes and bile canaliculi ([7]; heterozygous albumin knockout mice, 5 mg/kg tail vein bolus): transient increases in hepatocytes and enrichment in bile canaliculi
- disappearance of OTA from blood after bolus injection [7, 13]: completely disappeared from the blood of homozygous albumin knockout mice within a minute
- transport of OTA to hepatocytes and bile canaliculi ([7]; homozygous albumin knockout mice, 5 mg/kg tail vein bolus): massively increased canalicular secretion with almost no increase in the hepatocytes
- half-life ([7]; mouse, sinusoidal blood (liver), intravenous, homozygous albumin knockout mice, 5 mg/kg tail vein bolus, read-out: half-life of OTA signal in sinusoidal blood): ~0.22 min
- transport of OTA to hepatocytes and bile canaliculi ([7]; wild-type mice, 5 mg/kg tail vein bolus): No transport of OTA to hepatocytes and bile canaliculi was detectable
- tumor induction in chronic toxicity studies (mice [8]): induced liver and kidney tumors
- Half-life in blood t1/2 [9]: 35.5 days
- pKa, carboxyl group [10]: 4.3
- pKa, phenolic hydroxyl group [10]: 7.2
- Albumin binding K (HSA): ~10^7
- Albumin binding log K (HSA): 7.0 – 7.6
- Half-life in blood t1/2 [11]: 40 h
